# Assay results published in patent publication US20110097338A1, “Use of Substances for Sensitization of Tumor Cells to Radiation and/or Chemotherapy” (TECHNISCHE UNIVERSITAET DRESDEN, priority 2008, published 2011).
# d = 2'-deoxy (DNA); r = 2'-OH (RNA)
# Key:
# Assay type in all cases: cell-based, human
# PINCH-1 protein = test: Western Blot of PINCH-1 knock-down after siRNA transfection; conditions: HCT-116 and DLD-1 cells; 20 nmol/l siRNA with oligo fectamine; lysates 48 h after transfection
# Experimental: (§1) Human colorectal tumor cell lines of the type HCT-116 (ATCC No. CCL-247) and of the type DLD-1 (ATCC No. CCL-221) were transfected with PINCH-1-siRNA of the SEQ ID No. 5. For this purpose, 3×10^5 tumor cells on 6-well plates (BD, Heidelberg) in Dulbecco's Modified Eagle (DMEM; Gibco, Karlsruhe) with Glutamax-I (L-alanyl-L-glutamine), 10% serum (FCS; Biochrom, Berlin) and 1% of non-essential amino acids (Gibco, Karlsruhe) were seeded and cultured at 37° C. and 7% CO2. After 24 h the cells were washed once with Opti-MEM I (Invitrogen, Karlsruhe) and transfected with oligo fectamine (0.2%) and 20 nmol/l PINCH-1-siRNA for 8 h without serum in Opti-MEM I. Afterwards 10% serum was added and the cells incubated for another 16 h at 37° C. and 7% CO2. After a total of 24 h after transfection the cells were washed with phosphate-buffered saline solution (PBS; PAA, Cölbe) and removed with trypsin/EDTA solution. […] Of this portion, protein lysates were produced for examining knock-downs in the Western Blot, the proteins were separated by means of SDS PAGE, transferred onto a nitrocellulose membrane and detected with a mouse-anti-PINCH-1-antibody (clone 49; BD Heidelberg) as well as a peroxidase-coupled goat-anti-mouse-secondary antibody and the ECL system (GE Healthcare, Munich).
# DLD-1 = test: Clonogenic survival after radiation (colony forming assay), siRNA transfection; conditions: siRNA 20 nmol/l, irradiated 48 h later with 0-6 Gy
# Experimental: as §1
# HCT-116 = test: as above; conditions: siRNA 20 nmol/l, irradiated 48 h later with 0-6 Gy
# Experimental: as §1
substance,measurement,setting,value
"GCUAUAUCUCAAAGCAGUUtt (GCUAUAUCUCAAAGCAGUUTT; siRNA; sugars from the 5' end r19 d2, backbone not given here) [PINCH-1-siRNA of the SEQ ID No. 5]","formation of PINCH-1 protein / PINCH-1 expression (Western Blot, FIG. 3)",PINCH-1 protein,prevented
same,survival rate after radiation vs. control-siRNA (FIG. 4),DLD-1,lowered significantly
same,survival rate after radiation vs. control-siRNA (FIG. 4),HCT-116,lowered significantly
